Source: patent US11718622B2, “Heterocyclic adenosine receptor antagonists” (Exelixis, Inc., priority 2020, dated 2023)

Key:
[1] = target: Adenosine A2a (ADORA2A) receptor (Homo sapiens (Human), UniProt P29274); experiment: ADORA2A Receptor Binding Assay; settings: radioligand binding, membrane stock
Procedure, shortened: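 Test compounds incubated with A2a receptor membranes and a ³H-labelled radioligand for 2 hours at room temperature, then filtered through PEI-presoaked GF/C plates and washed. Filter-bound ³H counted by scintillation; % inhibition calculated from background-subtracted signal relative to high control.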

[2] = target: Adenosine A2B (ADORA2B) receptor (Homo sapiens (Human), UniProt P29275); experiment: ADORA2B Receptor Binding Assay; settings: radioligand binding, membrane stock
Sequence of Adenosine A2B (ADORA2B) receptor (P29275 whole entry): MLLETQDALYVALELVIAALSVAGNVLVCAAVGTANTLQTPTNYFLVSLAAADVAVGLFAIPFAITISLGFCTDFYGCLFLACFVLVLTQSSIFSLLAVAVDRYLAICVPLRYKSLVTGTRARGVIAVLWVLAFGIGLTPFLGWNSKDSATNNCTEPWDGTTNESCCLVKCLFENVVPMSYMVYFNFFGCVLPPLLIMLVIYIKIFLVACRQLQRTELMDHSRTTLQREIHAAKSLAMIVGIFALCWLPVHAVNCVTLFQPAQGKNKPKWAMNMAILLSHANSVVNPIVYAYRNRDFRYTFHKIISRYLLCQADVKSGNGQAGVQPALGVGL
Procedure, shortened: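 Radioligand competition binding on human A2B receptor membranes, 1 h at room temperature, then filtration through BSA-presoaked GF/C filters and ³H counting by scintillation. Inhibition expressed as % of high control after background subtraction.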

Sequence of Adenosine A2a (ADORA2A) receptor (P29274 whole entry): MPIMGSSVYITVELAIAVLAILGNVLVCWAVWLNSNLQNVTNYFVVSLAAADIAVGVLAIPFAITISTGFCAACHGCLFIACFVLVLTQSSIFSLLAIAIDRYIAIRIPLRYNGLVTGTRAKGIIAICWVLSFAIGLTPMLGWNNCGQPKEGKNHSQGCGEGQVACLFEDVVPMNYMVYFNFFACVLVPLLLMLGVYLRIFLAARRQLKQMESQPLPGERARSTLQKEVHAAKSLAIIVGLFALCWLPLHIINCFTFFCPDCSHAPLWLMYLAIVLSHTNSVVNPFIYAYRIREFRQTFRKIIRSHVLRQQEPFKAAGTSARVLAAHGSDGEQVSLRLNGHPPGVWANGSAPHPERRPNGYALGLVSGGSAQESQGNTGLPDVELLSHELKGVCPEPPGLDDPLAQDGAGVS

CC(=O)Nc1cc2nc(C)nn2c(-c2ccc(F)c(F)c2)n1 [Compound 129, N-[5-(3,4-difluorophenyl)-2-methyl-[1,2,4]triazolo[1,5-c]pyrimidin-7-yl]acetamide]
IC50 [1]: 10 to 100 nM | IC50 [2]: > 1000 nM

Cc1nc2cc(N)nc(-c3ccc(F)c(F)c3)n2n1 [Compound 130, 5-(3,4-difluorophenyl)-2-methyl-[1,2,4]triazolo[1,5-c]pyrimidin-7-amine]
IC50 [1]: 10 to 100 nM | IC50 [2]: 100 to 1000 nM

Cc1nc2cc(NC(=O)C3CC3)nc(-c3cccc(F)c3)n2n1 [Compound 131, N-[5-(3-fluorophenyl)-2-methyl-[1,2,4]triazolo[1,5-c]pyrimidin-7-yl]cyclopropanecarboxamide]
IC50 [1]: < 10 nM | IC50 [2]: 10 to 100 nM

CC(=O)Nc1cc2nc(C)nn2c(-c2cccc(F)c2)n1 [Compound 132, N-[5-(3-fluorophenyl)-2-methyl-[1,2,4]triazolo[1,5-c]pyrimidin-7-yl]acetamide]
IC50 [1]: 10 to 100 nM | IC50 [2]: 100 to 1000 nM

CC(=O)Nc1cc2nc(C(F)F)nn2c(-c2ccco2)n1 [Compound 133, N-[2-(difluoromethyl)-5-(furan-2-yl)-[1,2,4]triazolo[1,5-c]pyrimidin-7-yl]acetamide]
IC50 [1]: < 10 nM | IC50 [2]: < 10 nM

Cc1nc2c3cc(C(C)(C)O)[nH]c3nc(-c3ccc(C)o3)n2n1 [Compound 134, 2-[4-methyl-7-(5-methylfuran-2-yl)-3,5,6,8,10-pentazatricyclo[7.3.0.0^2,6]dodeca-1(9),2,4,7,11-pentaen-11-yl]propan-2-ol]
IC50 [1]: < 10 nM | IC50 [2]: < 10 nM

CN1CC(c2nc3cc(NC(=O)C4CC4)nc(-c4ccco4)n3n2)C1 [Compound 135, N-[5-(furan-2-yl)-2-(1-methylazetidin-3-yl)-[1,2,4]triazolo[1,5-c]pyrimidin-7-yl]cyclopropanecarboxamide]
IC50 [1]: < 10 nM | IC50 [2]: > 1000 nM

Cc1nc2c3cccnc3nc(-c3ccc(C)o3)n2n1 [Compound 136, 4-methyl-7-(5-methylfuran-2-yl)-3,5,6,8,10-pentazatricyclo[7.4.0.0^2,6]trideca-1(9),2,4,7,10,12-hexaene]
IC50 [1]: > 1000 nM | IC50 [2]: > 1000 nM

Cc1nc2c3cccnc3nc(-c3ccco3)n2n1 [Compound 137, 7-(furan-2-yl)-4-methyl-3,5,6,8,10-pentazatricyclo[7.4.0.0^2,6]trideca-1(9),2,4,7,10,12-hexaene]
IC50 [1]: > 1000 nM | IC50 [2]: > 1000 nM

Nc1nc(-c2ccccc2)n2nc(CF)nc2c1Cl [Compound 138, 8-chloro-2-(fluoromethyl)-5-phenyl-[1,2,4]triazolo[1,5-c]pyrimidin-7-amine]
IC50 [1]: < 10 nM | IC50 [2]: 10 to 100 nM

CC(=O)Nc1cc2nc(CF)nn2c(-c2ccco2)n1 [Compound 139, N-[2-(fluoromethyl)-5-(furan-2-yl)-[1,2,4]triazolo[1,5-c]pyrimidin-7-yl]acetamide]
IC50 [1]: < 10 nM | IC50 [2]: 10 to 100 nM

CNC(=O)Nc1cc2nc(C)nn2c(-c2ccc(F)c(F)c2)n1 [Compound 140, 1-[5-(3,4-difluorophenyl)-2-methyl-[1,2,4]triazolo[1,5-c]pyrimidin-7-yl]-3-methylurea]
IC50 [1]: 10 to 100 nM | IC50 [2]: 100 to 1000 nM

Cc1nc2c(Cl)c(N)nc(-c3ccc(F)c(F)c3)n2n1 [Compound 141, 8-chloro-5-(3,4-difluorophenyl)-2-methyl-[1,2,4]triazolo[1,5-c]pyrimidin-7-amine]
IC50 [1]: 10 to 100 nM | IC50 [2]: 100 to 1000 nM

Cc1nc2cc(N)nc(-c3cccc(F)c3)n2n1 [Compound 142, 5-(3-fluorophenyl)-2-methyl-[1,2,4]triazolo[1,5-c]pyrimidin-7-amine]
IC50 [1]: 10 to 100 nM | IC50 [2]: 100 to 1000 nM

Cc1nc2cc(NC(=O)C(F)(F)F)nc(-c3ccco3)n2n1 [Compound 143, 2,2,2-trifluoro-N-[5-(furan-2-yl)-2-methyl-[1,2,4]triazolo[1,5-c]pyrimidin-7-yl]acetamide]
IC50 [1]: 10 to 100 nM | IC50 [2]: 100 to 1000 nM

Cc1nc2cc(NC(=O)C(F)F)nc(-c3ccco3)n2n1 [Compound 144, 2,2-difluoro-N-[5-(furan-2-yl)-2-methyl-[1,2,4]triazolo[1,5-c]pyrimidin-7-yl]acetamide]
IC50 [1]: < 10 nM | IC50 [2]: < 10 nM

Cc1nc2cc(NC(=O)CF)nc(-c3ccco3)n2n1 [Compound 145, 2-fluoro-N-[5-(furan-2-yl)-2-methyl-[1,2,4]triazolo[1,5-c]pyrimidin-7-yl]acetamide]
IC50 [1]: 10 to 100 nM | IC50 [2]: 10 to 100 nM

Cc1nc2c(Cl)c(N)nc(-c3cccc(F)c3)n2n1 [Compound 146, 8-chloro-5-(3-fluorophenyl)-2-methyl-[1,2,4]triazolo[1,5-c]pyrimidin-7-amine]
IC50 [1]: < 10 nM | IC50 [2]: 10 to 100 nM

Cc1ccc(-c2nc3[nH]c(C(C)(C)O)cc3c3nc(C(F)(F)F)nn23)o1 [Compound 147, 2-[7-(5-methylfuran-2-yl)-4-(trifluoromethyl)-3,5,6,8,10-pentazatricyclo[7.3.0.0^2,6]dodeca-1(9),2,4,7,11-pentaen-11-yl]propan-2-ol]
IC50 [1]: < 10 nM | IC50 [2]: < 10 nM

O=C(Nc1cc2nc(C(F)F)nn2c(-c2ccco2)n1)C1CC1 [Compound 148, N-[2-(difluoromethyl)-5-(furan-2-yl)-[1,2,4]triazolo[1,5-c]pyrimidin-7-yl]cyclopropanecarboxamide]
IC50 [1]: < 10 nM | IC50 [2]: < 10 nM

O=C(Nc1cc2nc(CF)nn2c(-c2ccco2)n1)C1CC1 [Compound 149, N-[2-(fluoromethyl)-5-(furan-2-yl)-[1,2,4]triazolo[1,5-c]pyrimidin-7-yl]cyclopropanecarboxamide]
IC50 [1]: < 10 nM | IC50 [2]: 10 to 100 nM

CC(=O)Nc1cc2nc(C3CNC3)nn2c(-c2ccc(C)o2)n1 [Compound 150, N-[2-(azetidin-3-yl)-5-(5-methylfuran-2-yl)-[1,2,4]triazolo[1,5-c]pyrimidin-7-yl]acetamide]
IC50 [1]: 100 to 1000 nM | IC50 [2]: > 1000 nM

CC(=O)Nc1cc2nc(C3CN(C)C3)nn2c(-c2ccco2)n1 [Compound 151, N-[5-(furan-2-yl)-2-(1-methylazetidin-3-yl)-[1,2,4]triazolo[1,5-c]pyrimidin-7-yl]acetamide]
IC50 [1]: 10 to 100 nM | IC50 [2]: > 1000 nM

Cc1nc2cc(NC(N)=O)nc(-c3ccco3)n2n1 [Compound 152, [5-(furan-2-yl)-2-methyl-[1,2,4]triazolo[1,5-c]pyrimidin-7-yl]urea]
IC50 [1]: 10 to 100 nM | IC50 [2]: 10 to 100 nM

Cc1ccc(-c2nc3[nH]ncc3c3nc(C(F)(F)F)nn23)o1 [Compound 153, 7-(5-methylfuran-2-yl)-4-(trifluoromethyl)-3,5,6,8,10,11-hexazatricyclo[7.3.0.0^2,6]dodeca-1(9),2,4,7,11-pentaene]
IC50 [1]: < 10 nM | IC50 [2]: 10 to 100 nM

CCCNC(=O)Nc1cc2nc(C)nn2c(-c2ccco2)n1 [Compound 154, 1-[5-(furan-2-yl)-2-methyl-[1,2,4]triazolo[1,5-c]pyrimidin-7-yl]-3-propylurea]
IC50 [1]: 10 to 100 nM | IC50 [2]: 10 to 100 nM

CCNC(=O)Nc1cc2nc(C)nn2c(-c2ccco2)n1 [Compound 155, 1-ethyl-3-[5-(furan-2-yl)-2-methyl-[1,2,4]triazolo[1,5-c]pyrimidin-7-yl]urea]
IC50 [1]: 10 to 100 nM | IC50 [2]: 10 to 100 nM

Cc1nc2cc(NC(=O)NCC(C)C)nc(-c3ccco3)n2n1 [Compound 156, 1-[5-(furan-2-yl)-2-methyl-[1,2,4]triazolo[1,5-c]pyrimidin-7-yl]-3-(2-methylpropyl)urea]
IC50 [1]: < 10 nM | IC50 [2]: 10 to 100 nM

Cc1nc2cc(NC(=O)NCCN3CCCC3)nc(-c3ccco3)n2n1 [Compound 157, 1-[5-(furan-2-yl)-2-methyl-[1,2,4]triazolo[1,5-c]pyrimidin-7-yl]-3-(2-pyrrolidin-1-ylethyl)urea]
IC50 [1]: < 10 nM | IC50 [2]: 10 to 100 nM

Cc1nc2cc(NC(=O)NCCN3CCCCC3)nc(-c3ccco3)n2n1 [Compound 158, 1-[5-(furan-2-yl)-2-methyl-[1,2,4]triazolo[1,5-c]pyrimidin-7-yl]-3-(2-piperidin-1-ylethyl)urea]
IC50 [1]: < 10 nM | IC50 [2]: 10 to 100 nM

Cc1nc2cc(NC(=O)NCCN3CCOCC3)nc(-c3ccco3)n2n1 [Compound 159, 1-[5-(furan-2-yl)-2-methyl-[1,2,4]triazolo[1,5-c]pyrimidin-7-yl]-3-(2-morpholin-4-ylethyl)urea]
IC50 [1]: < 10 nM | IC50 [2]: 10 to 100 nM

Nc1nc(-c2ccccc2)n2nc(C(F)F)nc2c1Cl [Compound 160, 8-chloro-2-(difluoromethyl)-5-phenyl-[1,2,4]triazolo[1,5-c]pyrimidin-7-amine]
IC50 [1]: < 10 nM | IC50 [2]: 10 to 100 nM

Cc1nc2c3nc(C(F)(F)F)[nH]c3nc(-c3ccc(C)o3)n2n1 [Compound 161, 8-methyl-5-(5-methylfuran-2-yl)-2-(trifluoromethyl)-3H-[1,2,4]triazolo[5,1-f]purine]
IC50 [1]: 100 to 1000 nM | IC50 [2]: 100 to 1000 nM

Cc1ccc(-c2nc3[nH]c(C(C)(C)O)cc3c3nc(C(C)C)nn23)o1 [Compound 162, 2-[7-(5-methylfuran-2-yl)-4-propan-2-yl-3,5,6,8,10-pentazatricyclo[7.3.0.0^2,6]dodeca-1(9),2,4,7,11-pentaen-11-yl]propan-2-ol]
IC50 [1]: < 10 nM | IC50 [2]: 10 to 100 nM

Cc1nc2cc(NC(=O)NC(C)C)nc(-c3ccco3)n2n1 [Compound 163, 1-[5-(furan-2-yl)-2-methyl-[1,2,4]triazolo[1,5-c]pyrimidin-7-yl]-3-propan-2-ylurea]
IC50 [1]: < 10 nM | IC50 [2]: 10 to 100 nM

Cc1ccc(-c2nc(NC(=O)C3CC3)cc3nc(C4CNC4)nn23)o1 [Compound 164, N-[2-(azetidin-3-yl)-5-(5-methylfuran-2-yl)-[1,2,4]triazolo[1,5-c]pyrimidin-7-yl]cyclopropanecarboxamide]
IC50 [1]: 10 to 100 nM | IC50 [2]: > 1000 nM
